Here are results for three molecules from article PMC8585947, “Structure of Escherichia coli cytochrome bd-II type oxidase with bound aurachin D” (Nature Communications, 2021).

SMILES strings stand for the structures.

Assay [1] deals with cytochrome bd-II oxidase subunit AppB (Escherichia coli, UniProt P26458).
Assay [2] addresses T1, cytochrome bd-II oxidase subunit AppC (Escherichia coli, UniProt P26459).
T1 construct: bd-II oxidase (AppC, AppB, AppX), C-terminal His-tag on AppC; with AppB, AppX
The experiment in a line: duroquinol:O2 oxidoreductase activity of isolated bd-II, Clark-type oxygen electrode. The class given is biochemical.

The target of assay [3] is cytochrome bd-II oxidase subunit AppC (Escherichia coli, UniProt P26459, D239N). As to the kind of experiment: biochemical.
In assay [4] the target is T1, cytochrome bd-II oxidase subunit AppC. The experiment in a line: duroquinol:O2 oxidoreductase inhibition (Clark electrode). It is filed as biochemical.

T1 sequence (P24244 whole entry): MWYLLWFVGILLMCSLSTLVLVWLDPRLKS
T1 sequence (P26458 whole entry, further chain): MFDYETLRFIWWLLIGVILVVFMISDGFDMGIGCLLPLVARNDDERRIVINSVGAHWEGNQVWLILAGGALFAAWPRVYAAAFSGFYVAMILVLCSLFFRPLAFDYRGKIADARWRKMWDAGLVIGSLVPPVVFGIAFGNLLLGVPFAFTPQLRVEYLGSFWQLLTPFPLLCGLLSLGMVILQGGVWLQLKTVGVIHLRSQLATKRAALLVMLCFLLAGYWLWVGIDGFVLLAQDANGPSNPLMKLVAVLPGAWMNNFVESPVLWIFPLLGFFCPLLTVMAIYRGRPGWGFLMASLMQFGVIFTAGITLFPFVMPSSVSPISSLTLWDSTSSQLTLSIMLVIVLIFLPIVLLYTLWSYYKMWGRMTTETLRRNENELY
T1 sequence (P26459 whole entry): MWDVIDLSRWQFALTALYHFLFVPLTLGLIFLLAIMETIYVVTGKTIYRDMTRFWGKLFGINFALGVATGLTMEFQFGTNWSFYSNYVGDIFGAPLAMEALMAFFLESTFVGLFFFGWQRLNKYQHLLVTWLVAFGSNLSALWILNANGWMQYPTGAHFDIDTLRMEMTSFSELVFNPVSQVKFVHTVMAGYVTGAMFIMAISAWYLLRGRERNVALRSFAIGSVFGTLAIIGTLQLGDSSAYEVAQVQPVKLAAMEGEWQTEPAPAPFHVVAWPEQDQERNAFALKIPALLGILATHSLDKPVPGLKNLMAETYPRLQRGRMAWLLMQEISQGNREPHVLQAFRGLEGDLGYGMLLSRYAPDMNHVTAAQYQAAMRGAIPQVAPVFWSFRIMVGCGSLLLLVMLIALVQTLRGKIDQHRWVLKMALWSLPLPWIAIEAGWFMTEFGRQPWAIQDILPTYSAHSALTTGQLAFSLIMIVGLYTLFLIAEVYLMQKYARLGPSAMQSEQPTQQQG
Sequence of cytochrome bd-II oxidase subunit AppB (P26458 whole entry): as the sequence (P26458 whole entry, further chain) above
Sequence of cytochrome bd-II oxidase subunit AppB (P26459 whole entry partner): as the sequence (P26459 whole entry) above
Sequence of cytochrome bd-II oxidase subunit AppB (P24244 whole entry partner): as the sequence (P24244 whole entry) above
Sequence of cytochrome bd-II oxidase subunit AppC (Escherichia coli, UniProt P26459, D239N) (P26459 whole entry, stated change not applied): as the sequence (P26459 whole entry) above
Sequence of cytochrome bd-II oxidase subunit AppC (Escherichia coli, UniProt P26459, D239N) (P24244 whole entry, further chain): as the sequence (P24244 whole entry) above
Sequence of cytochrome bd-II oxidase subunit AppC (Escherichia coli, UniProt P26459, D239N) (P26458 whole entry, further chain): as the sequence (P26458 whole entry, further chain) above

For the molecule `COC1=C(OC)C(=O)C(C/C=C(\C)CC/C=C(\C)CC/C=C(\C)CC/C=C(\C)CC/C=C(\C)CC/C=C(\C)CC/C=C(\C)CCC=C(C)C)=C(C)C1=O` [ubiquinone-8], the “cryo-EM structure at 3.0 Å” value in assay [1] is “cleft towards the periplasmic space filled with an extended electron density that was perfectly fitted as ubiquinone-8”.

On to `CC(C)=CCC/C(C)=C/CC/C(C)=C/Cc1c(C)n(O)c2ccccc2c1=O` [aurachin C], for which the IC50 – broadly, the concentration that inhibits the measured activity by half – in assay [2] was determined as 0.0071 µM. That is a single-digit nanomolar value.

`CC(C)=CCC/C(C)=C/CC/C(C)=C\Cc1c(C)[nH]c2ccccc2c1=O` [aurachin D]: the IC50 in assay [3] is 0.0607 µM; in assay [4] it was 0.0111 µM.
